“And” between values parts separate entries of the source, which are not always exact repeats. Equal entries are not always repeated.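 Where inhibition never reached the appropriate level, the endpoint shown equals the highest concentration tested. Otherwise, values were interpolated linearly from a five-concentration, 48-hour dose response in 96-well plates. GI50: concentration for 50% inhibition of growth. At the TGI there is no net growth.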

Among the test systems are COLO 205 colon; DLD-1 colon; DMS 114 small cell lung; HCT-116 colon; KM20L2 colon; LOX IMVI melanoma; RXF 393 renal; SN12C renal; SNB-78 CNS; SK-MEL-2 melanoma.
Holding throughout (assay): growth of human tumour cells (NCI), 48 h

Turning to `Cc1cc(C)nc(NS(=O)(=O)c2ccc(Nc3c4ccccc4nc4c(C(=O)Nc5ccc(S(=O)(=O)N=C(N)N)cc5)ccc(Cl)c34)cc2)n1`, the TGI was over 100 µM with COLO 205 colon; over 100 µM in the assay with DLD-1 colon; 41.8 µM in the assay with DMS 114 small cell lung; 51.5 µM in the assay on HCT-116 colon; over 100 µM in the assay on KM20L2 colon; 34.7 µM with LOX IMVI melanoma. Also, the results for the TGI in the assay with RXF 393 renal, in the assay on SN12C renal and with SNB-78 CNS were 38.6 µM, 80.9 µM and over 100 µM, respectively.
On to `O=C(O)CSc1n[nH]c(-c2ccc(O)cc2)n1`, for which the TGI in the assay with COLO 205 colon, in the assay with DLD-1 colon, in the assay on DMS 114 small cell lung, in the assay on HCT-116 colon, in the assay on KM20L2 colon and in the assay on SK-MEL-2 melanoma was over 100 µM in each case. For the same compound, in the assay with SNB-78 CNS, the TGI was over 100 µM.
As for `N#Cc1cn(C2OC(CO)C(O)C2O)c2ncnc(N)c12` (configuration not stated), the GI50 in the assay on DLD-1 colon was 0.0277 µM; in the assay with HCT-116 colon it was 0.0264 µM and < 0.01 µM; in the assay with KM20L2 colon it was 0.0045 µM; with LOX IMVI melanoma, under 0.01 µM; in the assay with RXF 393 renal, 0.0161 µM; in the assay on SN12C renal, under 0.0119 µM. Further, the GI50 in the assay on SNB-78 CNS was 0.0736 µM. Moreover, the TGI in the assay on DLD-1 colon is over 272 µM; in the assay with HCT-116 colon, over 100 µM; in the assay on KM20L2 colon, 3.42 µM and 12 µM; in the assay on RXF 393 renal it was 0.0958 µM and 0.0708 µM; with SNB-78 CNS it was over 450 µM.
Consider `CC1OC(OCC2OC(Oc3c(-c4ccc(O)cc4)oc4cc(O)cc(O)c4c3=O)C(OC3OCC(O)(CO)C3O)C(O)C2O)C(O)C(O)C1O` (configuration not stated), for which the TGI with COLO 205 colon, in the assay with DLD-1 colon, in the assay with DMS 114 small cell lung, with HCT-116 colon, with KM20L2 colon and with LOX IMVI melanoma was over 100 µM each time. For the same compound, the TGI in the assay with SK-MEL-2 melanoma, with SN12C renal and with SNB-78 CNS was over 100 µM in each case.
As to `Cc1cnc2c(C)ccc([N+](=O)[O-])c2c1NCCCN(C)C`, the TGI in the assay with COLO 205 colon, with DMS 114 small cell lung, with HCT-116 colon, in the assay on KM20L2 colon, in the assay on LOX IMVI melanoma and in the assay on SK-MEL-2 melanoma was over 100 µM throughout. For the same compound, the TGI in the assay with SN12C renal and in the assay with SNB-78 CNS was over 100 µM throughout.
Consider `CC[C@H](C)N(CCN)C(=O)c1cc2ccccc2c(-c2ccccc2Cl)n1`, for which the TGI in the assay on COLO 205 colon is 17.9 µM; in the assay on DMS 114 small cell lung, 28 µM; with HCT-116 colon, 14.9 µM; in the assay with KM20L2 colon, 26.6 µM; in the assay with LOX IMVI melanoma it was 27.7 µM; with RXF 393 renal, 19.7 µM. The TGI in the assay on SK-MEL-2 melanoma stood at 33.5 µM; with SN12C renal, 32.8 µM; in the assay on SNB-78 CNS, 31.6 µM.
For the compound `CCOc1ccccc1NC(=O)C(=O)CC(=O)c1c(C)n([O-])c2ccccc2[n+]1=O`, the TGI with COLO 205 colon, with DMS 114 small cell lung, in the assay with HCT-116 colon, in the assay on KM20L2 colon, in the assay with LOX IMVI melanoma and in the assay with RXF 393 renal was over 100 µM throughout. In addition, the TGI in the assay on SK-MEL-2 melanoma, in the assay with SN12C renal and in the assay on SNB-78 CNS was over 100 µM each time.
In the case of `O=C1CC(O)C=C1Nc1ccc(Cl)cc1` (configuration not stated), the TGI in the assay on COLO 205 colon is 22.3 µM; in the assay on DLD-1 colon, over 100 µM; in the assay with DMS 114 small cell lung, over 100 µM; in the assay with HCT-116 colon, over 100 µM; in the assay with KM20L2 colon, 37.8 µM; with LOX IMVI melanoma it was over 100 µM. The TGI with RXF 393 renal, with SK-MEL-2 melanoma, in the assay with SN12C renal and in the assay with SNB-78 CNS was over 100 µM throughout.
For `O=C1C(=O)N(C(=O)c2ccc(Cl)c(Cl)c2)c2ccccc21`, the TGI in the assay on COLO 205 colon, in the assay on DLD-1 colon, in the assay on DMS 114 small cell lung, with LOX IMVI melanoma, in the assay on RXF 393 renal and in the assay on SNB-78 CNS was over 100 µM in each case.
Take `Cn1c2c(c3ccccc31)CCN(CCCCN1CCc3c(n(C)c4ccccc34)C1=O)C2`: the TGI with COLO 205 colon, with DLD-1 colon, with DMS 114 small cell lung, in the assay with HCT-116 colon, in the assay on KM20L2 colon and with RXF 393 renal was over 100 µM throughout. Moreover, the TGI in the assay on SK-MEL-2 melanoma, in the assay with SN12C renal and in the assay with SNB-78 CNS was over 100 µM throughout.
On to `Cc1cc2c(c(C#N)c1C)NC(=O)CCC2=O`, for which the TGI in the assay on COLO 205 colon, in the assay on DLD-1 colon, in the assay on DMS 114 small cell lung, in the assay on HCT-116 colon, in the assay with KM20L2 colon and with RXF 393 renal was over 100 µM throughout. The TGI in the assay with SK-MEL-2 melanoma, in the assay with SN12C renal and in the assay on SNB-78 CNS was over 100 µM in each case.
With `O=C(c1ccccc1)C(c1ccccc1)C1(O)C(=O)Nc2c(Cl)cc(Cl)cc21` (configuration not stated), the TGI was 33.7 µM with COLO 205 colon; 37.5 µM in the assay on DLD-1 colon; 33.9 µM with DMS 114 small cell lung; over 100 µM with KM20L2 colon; 42.8 µM in the assay on LOX IMVI melanoma; 34.4 µM in the assay with RXF 393 renal. Also, the TGI was 33 µM in the assay with SK-MEL-2 melanoma, over 100 µM in the assay on SN12C renal and 67.4 µM in the assay on SNB-78 CNS.
For the compound `CCOC(=O)C(=O)Nc1nc2c(s1)C(=O)c1ccccc1C2=O`, the TGI is 56.4 µM in the assay on COLO 205 colon; 31.8 µM in the assay on DLD-1 colon; 17.6 µM in the assay with DMS 114 small cell lung; 27.7 µM in the assay on HCT-116 colon; 40.7 µM with KM20L2 colon; 31.7 µM with SK-MEL-2 melanoma. The TGI in the assay with SN12C renal was 30.1 µM; in the assay with SNB-78 CNS, 24.8 µM.
With `COc1cc(OC)c([C@@H]2OC(=O)C3C2C(=O)O[C@H]3c2cc(OC)c(OC)cc2OC)cc1OC` (some centres not stated), the TGI in the assay with COLO 205 colon, with DLD-1 colon, with DMS 114 small cell lung, in the assay with HCT-116 colon, with KM20L2 colon and with RXF 393 renal was over 100 µM in each case. Moreover, the TGI with SK-MEL-2 melanoma, in the assay with SN12C renal and with SNB-78 CNS was over 100 µM in each case.
With `CCOC(=O)[C@@]1(C)C=C2O[C@@H]3OC4(CCCCC4)O[C@@H]3C2=C2C(O)=CC=C(O)[C@]21C(=O)OC`, the TGI in the assay on COLO 205 colon, in the assay on DLD-1 colon, in the assay on DMS 114 small cell lung, with HCT-116 colon, in the assay with KM20L2 colon and in the assay with LOX IMVI melanoma was over 68 µM throughout. For the same compound, the TGI with SK-MEL-2 melanoma, in the assay with SN12C renal and with SNB-78 CNS was over 68 µM throughout.

For the origin of these results see PubChem BioAssay (NCI).
